Columns and labels:
[1] = test system: M2-10B4 osteoprogenitor cells; assay: Osteogenic gene expression (ALP, BSP, OSX) in M2-10B4 cells; format: cell-based; conditions: 6 and 14 days of treatment, compared with untreated control cells and unconjugated OXY133, ranking within each linker series
Protocol: (§1) Oxy133-ALN conjugates were tested in M2-10B4 osteoprogenitor cells to ascertain osteogenic activity and confirm their mechanism of action in inducing osteogenic differentiation. Alkaline phosphatase (ALP) activity, induction of the expression of osteogenic differentiation marker genes (ALP; bone sialoprotein (BSP); and osterix (OSX)), and ^45Ca incorporation as a measure of extracellular matrix mineralization were assayed by our previously reported protocols. The inventors have shown that these in vitro assays translate into in vivo stimulation of bone formation in a variety of animal models. The gene expression for ALP, BSP and OSX induced by the OXY133-ALN conjugates were measured after 6 and 14 days of treatment, the results after 6 days are shown in FIG. 1.
(§2) The succinate-linked series (Oxy166, Oxy167, Oxy174) and the carbamate series (Oxy175, Oxy176, and Oxy177) were assayed as groups. […] It may be that OXY133 must be released from the OXY133-ALN conjugates in order to induce osteogenic gene expression. […] A quantitative ^45Ca mineralization assay was performed with analogues and unconjugated OXY133 over a 30-day incubation period in M2 cells as shown in FIG. 2.

[2] = test system: M2-10B4 osteoprogenitor cells; assay: Alkaline phosphatase (ALP) activity induction; format: cell-based; conditions: M2-10B4 cells; result mirrored the gene expression ranking
Protocol: as §1, §2

[3] = test system: human primary mesenchymal stem cells; conditions: cited from earlier work
bone disease models = conditions: rabbit spine fusion and rabbit calvarial defect models; cited from earlier work
spine fusion = conditions: compared to other analogues; cited from earlier work
[4] = Half-life in human liver microsomes; format: in vitro ADME; conditions: HLM
[5] = Hydroxyapatite (HAP) binding assay, NMR readout; conditions: in D2O, internal integration standard maleic acid, low HAP loading (FIG. 4C)
Protocol: The bone binding properties of bisphosphonates are due to their affinity for calcium in hydroxyapatite (HAP). Relative HAP binding capacity can be measured by incubating a solution of an analyte with HAP and measuring the proportion of compound remaining in the supernatant. […] Reliable quantification of a range of analytes can be obtained by using an inverse-gated decoupling pulse sequence and sufficiently long relaxation delays (d1).
The HAP binding assay was carried out under the following conditions: 1 mL of 4 mM analyte in 50 mM tris buffer at pH 7.5 is incubated with HAP (or no HAP for control) by inversion for 15 minutes. […] The procedure is illustrated in FIG. 3A.
The binding strengths of the OXY133-ALN conjugates of the present invention relative to ALN were determined and any differences in binding affinity contributed by the degree (mono- vs. bis-ALN linked conjugates), position (C3-OH vs. C6-OH), and nature (succinate vs. glycinate) of the Oxy133-ALN conjugates noted. ALN was used as a positive control and benzyl phosphonic acid (BnP) as an established negative control. 600 mg of HAP was used for the “large HAP loading” condition (FIG. 4A) and 150 mg of HAP was used for the “low HAP loading” condition (FIG. 4B).
Experimental conditions: 1 mL of 4 mM analyte in 50 mM tris buffer pH 7.5 is incubated with specified amount of HAP (or no HAP for control) by inversion for 15 min. […]

## CCCCCC[C@](C)(O)[C@H]1CC[C@H]2[C@@H]3C[C@H](OC(=O)NCC(=O)NCCCC(O)(P(=O)(O)O)P(=O)(O)O)[C@H]4C[C@@H](O)CC[C@]4(C)[C@H]3CC[C@@]21C [Oxy175]
[1]
  induction of osteogenic gene expression (ALP, BSP, OSX): most active
[2]
  ALP activity induction: most active

## CCCCCC[C@](C)(O)[C@H]1CC[C@H]2[C@@H]3C[C@H](O)[C@H]4C[C@@H](O)CC[C@]4(C)[C@H]3CC[C@@]21C [OXY133]
[3]
  osteogenesis in cultured human primary mesenchymal stem cells: induce osteogenesis
Bone disease models
  osteogenesis in non-rodent models of bone disease: induce robust osteogenesis
Spine fusion
  spine fusion in rats: induce spine fusion in rats in an accelerated manner
[4]
  half-life: < 5 min

## CCCCCC[C@](C)(O)[C@H]1CC[C@H]2[C@@H]3C[C@H](O)[C@H]4C[C@@H](OC(=O)NCC(=O)NCCCC(O)(P(=O)(O)O)P(=O)(O)O)CC[C@]4(C)[C@H]3CC[C@@]21C [Oxy177]
[5]
  HAP binding affinity, 1H-NMR method: binding affinity equivalent to the rest of the OXY-ALN series
